Reference: patent publication US12667580B2, “Retinoic acid precursor and anticancer drug composition comprising same” (INDUSTRIAL COOPERATION FOUNDATION JEONBUK NATIONAL …, priority 2021, dated 2026)
One block for each compound: values may come before it.

Assays:
GSH in A549 cells = experiment: Intracellular GSH levels; type: cell-based; set-up: dose or concentration left out as unconfirmed
Protocol: Therefore, an experiment was conducted to measure intracellular GSH levels in A549 cells treated with tRABA.

[1] = test system: calreticulin (CRT) in A549 cells; experiment: CRT level by flow cytometry; type: cell-based
Protocol: Next, since immunogenic apoptosis enhances immunogenicity and anticancer effects by releasing damage-associated molecular pattern (DAMP) substances during the cell dying process, an experiment was performed to confirm whether tRABA nanoparticles induce immunogenic cell death to improve immunogenicity. First, the expression levels of DAMPs such as calreticulin (CRT) and high mobility group box 1 (HMGB1) were confirmed as endoplasmic reticulum (ER) stress markers.

[2] = test system: HMGB1 released from A549 cells; experiment: HMGB-1 release; type: cell-based
Protocol: Next, since it is known that HMGB-1 is a nuclear protein that binds to DNA and is triggered by an apoptosis inducer and that in the late stage of apoptosis, cells are destroyed and HMGB-1 is released into the tumor microenvironment to induce dendritic cell maturation and antigen presentation, an experiment was performed to confirm the effect of tRABA nanoparticles on HMGB-1 release.

tumor model mice = experiment: Tumor growth inhibition in tumor model mice; type: in vivo, mouse; details: i.v. on Days 1, 4, 7, 10, 13; RA 3 mg/kg, HBA 1.5 mg/kg, tRABA 5 mg/kg
Protocol: Next, the anticancer effect was evaluated by administering a therapeutic drug in the tumor model mice when the tumor size reached 50 mm^3. A therapeutic drug was intravenously administered on Days 1, 4, 7, 10, and 13 to the tumor model mice.

A549 cells = experiment: MTT cytotoxicity, A549; type: cell-based; details: 24 hours, RA (210 mM), HBA (220 mM)
Protocol: Next, to evaluate the cytotoxicity of tRABA, a 3-(4,5-dimethylthiazol-2-yl)-2,5-diphenyltetrazolium bromide (MTT)) analysis was performed. The cell survival rate was measured 24 hours after A549 cells were treated with RA, HBA, and tRABA, and the results are shown in FIG. 8C.

[3] = Reactivity of RABA in the presence of H2O2 (1H NMR after incubation); type: physicochemical
Protocol: To evaluate the reactivity of the prepared RABA in the presence of H2O2, ^1H NMR of the RABA was taken after incubation in a 5 mM H2O2 solution.
The peaks at 7.3 and 7.8 ppm corresponding to aromatic protons disappeared, and new peaks at 6.8 and 7.1 ppm appeared. The peaks corresponding to benzylic proton were shifted from 5.1 ppm to 5.0 ppm. On the other hand, there was no peak shift in the RABA incubated in water without H2O2.

[4] = Self-assembly of nanoparticles in water, particle size and SEM; type: physicochemical
Protocol: RABA dissolved in tetrahydrofuran (THF) was added to water while stirring. During dilution in water, strong light scattering occurred due to the Tyndall phenomenon. […] The mean hydrodynamic diameter was measured to be ˜120 nm.
It was confirmed that the nanoparticles existed in a spherical colloidal state. In addition, an experiment was performed to confirm self-assembly of Compound 2, which is produced during the preparation process of RA and RABA.

[5] = test system: SW620 multicellular spheroids; experiment: Tumor penetration in multicellular spheroids; type: cell-based; details: 6 hours
Description: Next, SW620 multicellular spheroids were used to evaluate the tumor penetration of Nile Red-loaded tRABA nanoparticles. […] This means that tRABA penetrated much deeper into the spheroids than RABA. From this, it could be confirmed that tRABA has excellent tumor penetration.

Compound: hydroxybenzyl alcohol [HBA]
intracellular GSH levels (GSH in A549 cells): no effect on the GSH levels
level of CRT [1]: almost no effect
level of HMGB-1 [2]: did not affect the level of HMGB-1
tumor growth inhibition (tumor model mice): negligible inhibitory effect on tumor growth

Compound: CC1=C(/C=C/C(C)=C/C=C/C(C)=C/C(=O)O)C(C)(C)CCC1 [RA, Retinoic acid]
cell survival rate / cytotoxicity (MTT) (A549 cells): the cell survival rate decreased

stability in water (1H NMR peak shift) ([3]; incubated in water without H2O2): no peak shift
self-assembly into nanoparticles ([4]; THF solution added to water, SEM): the nanoparticles were being formed well
mean hydrodynamic diameter ([4]; nanoparticles in water): ~120 nm
Compound: CC1=C(/C=C/C(C)=C/C=C/C(C)=C/C(=O)OCc2ccc(B(O)O)cc2)C(C)(C)CCC1 [RABA]
reactivity in the presence of H2O2 (1H NMR peak shift) ([3]; incubation in a 5 mM H2O2 solution): a shift of the peak due to the release of HBA was observed
spheroid penetration (fluorescence) [5]: weak fluorescence
